Results as given in ChEMBL document CHEMBL4732043, “The discovery of novel indazole derivatives as tubulin colchicine site binding agents that displayed potent antitumor activity both in vitro and in vivo” (Eur J Med Chem, 2020).

Experiments:
HCT-116 [1] = experiment: Antiproliferative activity against human HCT-116 cells assessed as cell viability after 72 hrs by MTT assay; type: functional
A549 = experiment: Antiproliferative activity against human A549 cells assessed as cell viability after 72 hrs by MTT assay; type: functional
HepG2 = experiment: Antiproliferative activity against human HepG2 cells assessed as cell viability after 72 hrs by MTT assay; type: functional
[2] = Toxicity in nude mouse xenografted with human HCT-116 cells assessed as change in body weight at 25 mg/kg, po for 21 days (reference value: 2.2%); type: organism-based; settings: in vivo, 504 h, time 21 day
HCT-116 [3] = experiment: Antitumor activity against human HCT-116 cells xenografted in nude mouse assessed as inhibition of tumor growth at 25 mg/kg, po for 21 days; type: functional; settings: HCT-116, po, 504 h, time 21 day, read-out: TGI
HCT-116 [4] = experiment: Induction of apoptosis in human HCT-116 cells assessed as early apoptotic cells at 10 nM after 24 hrs by annexinV and 7-ADD staining based flow cytometry (reference value: 0.9%); type: functional
[5] = Toxicity in nude mouse xenografted with human HCT-116 cells assessed as change in body weight at 12.5 mg/kg, po for 21 days (reference value: 2.2%); type: organism-based; settings: in vivo, 504 h, time 21 day
SW-620 = experiment: Antiproliferative activity against human SW-620 cells assessed as cell viability after 72 hrs by MTT assay; type: functional
HCT-116 [6] = experiment: Induction of apoptosis in human HCT-116 cells assessed as early apoptotic cells at 20 nM after 24 hrs by annexinV and 7-ADD staining based flow cytometry (reference value: 0.9%); type: functional
HCT-116 [7] = experiment: Induction of cell cycle arrest in human HCT-116 cells assessed as accumulation of cells at S phase at 20 nM after 24 hrs by flow cytometry (reference value: 43.12%); type: functional
[8] = (§1) Inhibition of porcine brain tubulin polymerization by fluorescence based assay; type: cell-based, Sus scrofa domesticus, 1-87 tumor cell line
1-87 tumor cell line = experiment: as §1; settings: Sus scrofa domesticus
HCT-116 [9] = experiment: Induction of apoptosis in human HCT-116 cells assessed as early apoptotic cells at 40 nM after 24 hrs by annexinV and 7-ADD staining based flow cytometry (reference value: 0.9%); type: functional
HCT-116 [10] = experiment: Induction of apoptosis in human HCT-116 cells assessed as late apoptotic cells at 10 nM after 24 hrs by annexinV and 7-ADD staining based flow cytometry (reference value: 1.5%); type: functional
Tubulin (Homo sapiens) [11] = biological target: T1, Tubulin (Homo sapiens) (UniProt P68371+Q9H4B7+P0DPH7+P68366+Q13509+Q71U36+P04350+Q3ZCM7+P07437+P68363+Q9BQE3+Q6PEY2+Q13885+Q9BVA1+Q9BUF5); experiment: Inhibition of tubulin polymerization in human HCT-116 cells assessed as complete microtubule depolymerization at 40 nM after 24 hrs by immunofluorescence analysis; type: cell-based
HCT-116 [12] = experiment: Induction of apoptosis in human HCT-116 cells assessed as viable cells at 40 nM after 24 hrs by annexinV and 7-ADD staining based flow cytometry (reference value: 96.7%); type: functional; settings: read-out: Activity
HCT-116 [13] = experiment: Antitumor activity against human HCT-116 cells xenografted in nude mouse assessed as inhibition of tumor growth at 12.5 mg/kg, po for 21 days; type: functional; settings: HCT-116, po, 504 h, time 21 day, read-out: TGI
HCT-116 [14] = experiment: Induction of apoptosis in human HCT-116 cells assessed as necrotic cells at 20 nM after 24 hrs by annexinV and 7-ADD staining based flow cytometry (reference value: 0.9%); type: functional
Tubulin (Homo sapiens) [15] = biological target: T1, Tubulin (Homo sapiens); experiment: Inhibition of tubulin polymerization in human HCT-116 cells assessed as microtubule network polymerization after 24 hrs by immunofluorescence analysis; type: cell-based; settings: dose 20-40 nM
HCT-116 [16] = experiment: Induction of apoptosis in human HCT-116 cells assessed as viable cells at 10 nM after 24 hrs by annexinV and 7-ADD staining based flow cytometry (reference value: 96.7%); type: functional; settings: read-out: Activity
HCT-116 [17] = experiment: Induction of apoptosis in human HCT-116 cells assessed as necrotic cells at 40 nM after 24 hrs by annexinV and 7-ADD staining based flow cytometry (reference value: 0.9%); type: functional
HCT-116 [18] = experiment: Induction of cell cycle arrest in human HCT-116 cells assessed as accumulation of cells at G1 phase at 10 nM after 24 hrs by flow cytometry (reference value: 40.5%); type: functional
HCT-116 [19] = experiment: Induction of cell cycle arrest in human HCT-116 cells assessed as accumulation of cells at G1 phase at 20 nM after 24 hrs by flow cytometry (reference value: 40.5%); type: functional
HCT-116 [20] = experiment: Induction of apoptosis in human HCT-116 cells assessed as late apoptotic cells at 40 nM after 24 hrs by annexinV and 7-ADD staining based flow cytometry (reference value: 1.5%); type: functional
[21] = biological target: Tubulin beta (Homo sapiens) (UniProt P68371+Q9H4B7+Q13509+P04350+Q3ZCM7+P07437+Q13885+Q9BVA1+Q9BUF5+A6NNZ2); experiment: Inhibition of N,N'-Ethylenebis(iodoacetamide) binding to beta-tubulin in human HCT-116 cells assessed as reduction in EBI/beta-tubulin adduct formation preincubated for 2 hrs followed by EBI addition and measured after 1.5 hrs by Western blot analysis; type: cell-based; settings: dose 0.2-25 µM, time 3.5 hrs
[22] = Cytotoxicity against HUVEC assessed as cell viability after 72 hrs by MTT assay; type: cell-based; settings: human, HUVEC cells
HCT-116 [23] = experiment: Induction of apoptosis in human HCT-116 cells assessed as viable cells at 20 nM after 24 hrs by annexinV and 7-ADD staining based flow cytometry (reference value: 96.7%); type: functional; settings: read-out: Activity
Tubulin (Homo sapiens) [24] = biological target: T1, Tubulin (Homo sapiens); experiment: Inhibition of tubulin polymerization in human HCT-116 cells assessed as microtubule spindle formation after 24 hrs by immunofluorescence analysis; type: cell-based; settings: dose 20-40 nM
HCT-116 [25] = experiment: Induction of apoptosis in human HCT-116 cells assessed as late apoptotic cells at 20 nM after 24 hrs by annexinV and 7-ADD staining based flow cytometry (reference value: 1.5%); type: functional
HCT-116 [26] = experiment: Induction of cell cycle arrest in human HCT-116 cells assessed as accumulation of cells at S phase at 10 nM after 24 hrs by flow cytometry (reference value: 43.12%); type: functional
HCT-116 [27] = experiment: Induction of cell cycle arrest in human HCT-116 cells assessed as accumulation of cells at G2/M phase at 20 nM after 24 hrs by flow cytometry (reference value: 16.35%); type: functional
HT-29 = experiment: Antiproliferative activity against human HT-29 cells assessed as cell viability after 72 hrs by MTT assay; type: functional
HCT-116 [28] = experiment: Induction of cell cycle arrest in human HCT-116 cells assessed as accumulation of cells at G2/M phase at 10 nM after 24 hrs by flow cytometry (reference value: 16.35%); type: functional
HCT-116 [29] = experiment: Induction of apoptosis in human HCT-116 cells assessed as necrotic cells at 10 nM after 24 hrs by annexinV and 7-ADD staining based flow cytometry (reference value: 0.9%); type: functional

SMILES: COc1ccc2c(Nc3ccc4c(c3)OCO4)n[nH]c2c1
- GI50 (HCT-116 [1]): > 25 µM
- GI50 (A549): > 25 µM
- GI50 (HepG2): > 25 µM

SMILES: COc1ccc(Nc2n[nH]c3cc(OC)ccc23)cc1
- GI50 (HCT-116 [1]): 24.8 µM
- GI50 (A549): > 25 µM
- GI50 (HepG2): > 25 µM

SMILES: COc1ccc2c(Nc3ccc(OC)c(OC)c3)n[nH]c2c1
- GI50 (HCT-116 [1]): 14.6 µM
- GI50 (A549): > 25 µM
- GI50 (HepG2): > 25 µM

SMILES: O=c1[nH]cc(F)c(=O)[nH]1 [FLUOROURACIL]
- Activity [2]: 21.8%
- inhibition in vivo at 25 mg/kg (HCT-116 [3]): 45.5%

SMILES: Fc1ccc2c(Nc3ccc4c(c3)OCO4)n[nH]c2c1
- GI50 (HCT-116 [1]): > 25 µM
- GI50 (A549): > 25 µM
- GI50 (HepG2): > 25 µM

SMILES: COc1ccc(Nc2n[nH]c3ccc(C)cc23)cc1OC
- GI50 (HCT-116 [1]): 22.3 µM
- GI50 (A549): > 25 µM
- GI50 (HepG2): > 25 µM

SMILES: COc1cc(Nc2n[nH]c3ccc(C)cc23)cc(OC)c1
- GI50 (HCT-116 [1]): > 25 µM
- GI50 (A549): > 25 µM
- GI50 (HepG2): > 25 µM

SMILES: COc1cc(Nc2n[nH]c3ccc(C)cc23)cc(OC)c1OC
- GI50 (HCT-116 [1]): 2.6 µM
- GI50 (A549): 1.1 µM
- GI50 (HepG2): 4 µM

SMILES: COc1ccc(Nc2n[nH]c3cc(C)ccc23)cc1
- GI50 (HCT-116 [1]): > 25 µM
- GI50 (A549): > 25 µM
- GI50 (HepG2): > 25 µM

SMILES: COc1ccc(Nc2n[nH]c3ccc(C)cc23)cc1
- GI50 (HCT-116 [1]): > 25 µM
- GI50 (A549): > 25 µM
- GI50 (HepG2): > 25 µM

SMILES: Cc1ccc2[nH]nc(Nc3ccc4c(c3)OCO4)c2c1
- GI50 (HCT-116 [1]): > 25 µM
- GI50 (A549): > 25 µM
- GI50 (HepG2): > 25 µM

SMILES: Cc1ccc2c(Nc3ccc4c(c3)OCO4)n[nH]c2c1
- GI50 (HCT-116 [1]): 23.7 µM
- GI50 (A549): > 25 µM
- GI50 (HepG2): > 25 µM

SMILES: COc1ccc(/C=C\c2cc(OC)c(OC)c(OC)c2)cc1O [COMBRETASTATIN A4]
- GI50 (HCT-116 [1]): 0.006 µM
- GI50 (A549): 0.167 µM
- GI50 (HepG2): 0.002 µM

SMILES: COc1cc(Nc2n[nH]c3c(C)cccc23)cc(OC)c1OC
- GI50 (HCT-116 [1]): 4.6 µM
- GI50 (A549): 4.3 µM
- GI50 (HepG2): 5.4 µM

SMILES: COc1ccc(Nc2n[nH]c3cc(C)ccc23)cc1OC
- GI50 (HCT-116 [1]): 2.26 µM
- GI50 (A549): 0.99 µM
- GI50 (HepG2): 0.63 µM

SMILES: COc1cc(Nc2n[nH]c3ccccc23)cc(OC)c1OC
- GI50 (HCT-116 [1]): 18.9 µM
- GI50 (A549): 19.4 µM
- GI50 (HepG2): 24.1 µM

SMILES: COc1cc(Nc2n[nH]c3cccc(C)c23)cc(OC)c1OC
- GI50 (HCT-116 [1]): 9.3 µM
- GI50 (A549): 6.1 µM
- GI50 (HepG2): 10.1 µM

SMILES: COc1cc(Nc2n[nH]c3cc(OC)ccc23)cc(OC)c1
- GI50 (HCT-116 [1]): 0.96 µM
- GI50 (A549): 0.51 µM
- GI50 (HepG2): 0.78 µM

SMILES: COc1ccc(Nc2n[nH]c3cc(F)ccc23)cc1OC
- GI50 (HCT-116 [1]): 16.7 µM
- GI50 (A549): > 25 µM
- GI50 (HepG2): > 25 µM

SMILES: COc1ccc(Nc2n[nH]c3cc(F)ccc23)cc1
- GI50 (HCT-116 [1]): > 25 µM
- GI50 (A549): > 25 µM
- GI50 (HepG2): > 25 µM

SMILES: COc1cc(Nc2n[nH]c3cc(C)ccc23)cc(OC)c1
- GI50 (HCT-116 [1]): 0.7 µM
- GI50 (A549): 1.1 µM
- GI50 (HepG2): 0.2 µM

SMILES: COc1cc(Nc2n[nH]c3cc(C)ccc23)cc(OC)c1OC
- Activity (HCT-116 [4]): 4.7%
- GI50 (HCT-116 [1]): 0.015 µM
- Activity [5]: 2.7%
- GI50 (SW-620): 0.008 µM
- Activity (HCT-116 [6]): 8.9%
- Activity (HCT-116 [7]): 4.68%
- IC50 [8]: 3.39 µM
- inhibition (1-87 tumor cell line): Dose-dependent effect
- Activity (HCT-116 [9]): 15.4%
- GI50 (A549): 0.033 µM
- Activity [2]: 6.5%
- Activity (HCT-116 [10]): 12.7%
- inhibition (Tubulin (Homo sapiens) [11]): 100%
- viability at 0.04 µM (HCT-116 [12]): 62.2%
- inhibition in vivo at 12.5 mg/kg (HCT-116 [13]): 27.4%
- Activity (HCT-116 [14]): 2.1%
- inhibition (Tubulin (Homo sapiens) [15]): Dose-dependent effect
- viability at 0.01 µM (HCT-116 [16]): 79.9%
- Activity (HCT-116 [17]): 1.5%
- inhibition in vivo at 25 mg/kg (HCT-116 [3]): 45.3%
- Activity (HCT-116 [18]): 34.54%
- Activity (HCT-116 [19]): 14.25%
- Activity (HCT-116 [20]): 20.9%
- inhibition [21]: Dose-dependent effect
- GI50 at 72 h [22]: > 25 µM
- viability at 0.02 µM (HCT-116 [23]): 75.4%
- GI50 (HepG2): 0.027 µM
- inhibition (Tubulin (Homo sapiens) [24]): Dose-dependent effect
- Activity (HCT-116 [25]): 13.7%
- Activity (HCT-116 [26]): 36.46%
- Activity (HCT-116 [27]): 81.07%
- GI50 (HT-29): 0.031 µM
- Activity (HCT-116 [28]): 29%
- Activity (HCT-116 [29]): 2.7%

SMILES: COc1cc(Nc2n[nH]c3cc(F)ccc23)cc(OC)c1OC
- GI50 (HCT-116 [1]): 5.3 µM
- GI50 (A549): 21.3 µM
- GI50 (HepG2): 16 µM
